Four molecules from patent US9309276B2, “Synthetic lipid A derivative” (University of Georgia Research Foundation, Inc., priority 2007, dated 2016) can be followed below.

This assay addresses T1, murine TLR4, MD2, and CD14 (Mus musculus, UniProt Q9JHF9+Q9QUK6).
T1 construct: host or cells: HEK 293T
T1 sequence (Q9QUK6 26-835): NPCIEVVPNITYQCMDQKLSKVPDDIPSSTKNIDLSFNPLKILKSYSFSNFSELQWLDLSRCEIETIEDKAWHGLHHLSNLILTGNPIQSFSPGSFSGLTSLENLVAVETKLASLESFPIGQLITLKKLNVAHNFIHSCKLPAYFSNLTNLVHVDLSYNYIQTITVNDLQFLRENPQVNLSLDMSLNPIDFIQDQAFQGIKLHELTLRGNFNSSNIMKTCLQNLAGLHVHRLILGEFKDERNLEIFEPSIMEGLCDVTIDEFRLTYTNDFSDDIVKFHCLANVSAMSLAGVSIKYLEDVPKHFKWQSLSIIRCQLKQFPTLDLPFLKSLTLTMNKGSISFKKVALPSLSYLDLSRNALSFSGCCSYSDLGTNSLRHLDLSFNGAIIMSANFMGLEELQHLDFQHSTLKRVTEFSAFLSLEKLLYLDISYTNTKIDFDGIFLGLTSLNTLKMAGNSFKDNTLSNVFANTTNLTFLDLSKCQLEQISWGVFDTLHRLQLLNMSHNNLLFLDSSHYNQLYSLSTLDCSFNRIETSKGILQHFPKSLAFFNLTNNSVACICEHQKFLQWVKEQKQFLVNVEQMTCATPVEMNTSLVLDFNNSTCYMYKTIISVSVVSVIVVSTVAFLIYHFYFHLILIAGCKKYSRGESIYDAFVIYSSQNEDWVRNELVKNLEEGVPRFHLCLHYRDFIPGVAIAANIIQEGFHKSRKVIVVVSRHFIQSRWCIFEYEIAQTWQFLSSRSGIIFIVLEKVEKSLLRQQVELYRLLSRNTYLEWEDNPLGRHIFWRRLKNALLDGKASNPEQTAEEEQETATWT
T1 sequence (Q9JHF9 19-160): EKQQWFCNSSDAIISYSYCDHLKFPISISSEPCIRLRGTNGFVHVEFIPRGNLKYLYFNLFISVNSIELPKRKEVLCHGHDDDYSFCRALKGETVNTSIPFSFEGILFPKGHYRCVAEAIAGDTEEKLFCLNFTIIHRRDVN
The assay is described as follows: NF-κB activation (luciferase reporter) in HEK 293T cells stably transfected with murine TLR4/MD2/CD14. In kind it is cell-based. Conditions: for EC50: 4 h exposure, dual-luciferase, best-fit value. Here is the method:
Induction of NF-κB activation was determined in triplicate cultures of HEK 293T cells stably transfected with murine TLR4, MD2, and CD14 and transiently transfected with pELAM-Luc, pRL-TK, and pcDNA3 plasmids. Forty-four hours post-transfection, cells were treated with E. coli LPS or lipid A derivatives 1-5 at the indicated concentrations or were left untreated (control). Forty-eight hours post-transfection, NF-κB activation was determined by firefly luciferase activity relative to Renilla luciferase activity. In the transfection experiment shown, human TNF-α (10 ng/mL) induced 12.1±0.3-fold activation of NF-κB.
To obtain further support that the EC50 values of secreted TNF-α protein are not affected by transcriptional, translational, or protein processing processes, dose response curves for the activation of the transcription factor NF-κB were determined for each compound and the results compared with similar data for secretion of TNF-α protein. Thus, compounds 1-5, and E. coli LPS were exposed at a range of concentrations to HEK 293T cells stably transfected with […] TLR4/MD2/CD14 and transiently transfected with a plasmid containing the reporter gene pELAM-Luc (NF-κB dependent firefly luciferase reporter vector) and a plasmid containing the control gene pRL-TK (Renilla luciferase control reporter vector). As a negative control, wild type HEK 293T cells transiently transfected with plasmids containing the reporter gene pELAM-Luc and control gene pRL-TK were used. After an incubation time of 4 h, the activity was measured using a commercial dual-luciferase assay.
The day before transfection, HEK 293T wild type cells and HEK 293T cells stably transfected with murine TLR4/MD2/CD14 were plated in 96-well tissue culture plates (16,000 cells/well). The next day, cells were transiently transfected using PolyFect Transfection Reagent (Qiagen) with expression plasmids pELAM-Luc (NF-κB-dependent firefly luciferase reporter plasmid, 50 ng/well) (Chow et al., J. Biol. Chem. 1999, 274, 10689-10692) and pRL-TK (Renilla luciferase control reporter vector, 1 ng/well; Promega) as an internal control to normalize experimental variations. The empty vector pcDNA3 (Invitrogen) was used as a control and to normalize the DNA concentration for all of the transfection reactions (total DNA 70 ng/well). […] The luciferase activity was measured using the Dual-Luciferase Reporter Assay System (Promega) according to the manufacturer's instructions and the Fluoroskan Accent FL combination luminometer/fluorometer (Thermo Electron Corporation). […]
Concentration-response data were analyzed using nonlinear least-squares curve fitting in Prism (GraphPad Software, Inc.). […]
(A reporter such as luciferase makes a cellular process visible.)

The term EC50 denotes the concentration needed to bring the measured effect to its halfway point. Consider `CCCCCCCCCCCCCC(=O)OC(CCCCCCCCCCC)CC(=O)OC1C(NC(=O)CC(CCCCCCCCCCC)OC(=O)CCCCCCCCCCC)C(OCC2OC(OP(=O)(O)O)C(NC(=O)CC(O)CCCCCCCCCCC)C(OC(=O)CC(O)CCCCCCCCCCC)C2O)OC(CO)C1OP(=O)(O)O` [Lipid A 1, 6-O-{2-Deoxy-2-[(R)-3-dodecanoyloxy-tetradecanoylamino]-3-O—[(R)-3-tetradecanoyloxy-tetradecanoyl]-β-D-glucopyranosyl}-2-deoxy-3-O—[(R)-3-hydroxy-tetradecanoyl]-2-[(R)-3-hydroxy-tetradecanoylamino]-α-D-glucopyranose 1,4′-bisphosphate], for which the EC50 stood at 38 nM.

`CCCCCCCCCCCCCCCC(=O)O[C@H](CCCCCCCCCCCC(C)C)CC(=O)N[C@H]1[C@H](OC[C@H]2O[C@H](OP(=O)(O)O)[C@H](NC(=O)C[C@H](O)CCCCCCCCCCCC(C)C)[C@@H](O)[C@@H]2O)O[C@H](CO)[C@@H](O)[C@@H]1ONC(=O)C[C@H](O)CCCCCCCCCC(C)C` [Compound 104, 6-O-{2-Deoxy-2-[(R)-3-hexadecanoyloxy-15-methyl-hexadecanoylamino]-3-O—[(R)-3-hydroxy-13-methyl-tetradecanoylamino]-β-D-glucopyranosyl}-2-deoxy-2-[(R)-3-hydroxy-15-methyl-hexadecanoylamino]-α-D-glucopyranose 1-phosphate]: the “NF-κB activation, mouse TLR4/MD2/CD14” value (Example III, 104 at 0.1, 1 and 10 μg mL−1, E. coli LPS 10 ng mL−1, 4 h) was “at high concentrations, compound 104 could induce NF-κB activation”.

As to `CCCCCCCCCCCCCCCC(=O)OC(CCCCCCCCCCC)CC(=O)NC1C(OP(=O)(O)O)OC(COC2OC(CO)C(OP(=O)(O)O)C(OC(=O)CC(CCCCCCCCC)OC(=O)CCCCCCCCCCC)C2NC(=O)CC(CCCCCCCCCCC)OC(=O)CCCCCCCCCCC)C(O)C1OC(=O)CC(O)CCCCCCCCC` [Lipid A 4, 6-O-{2-Deoxy-3-O—[(R)-3-dodecanoyloxy-dodecanoyl]-2-[(R)-3-dodecanoyloxy-tetradecanoylamino]-β-D-glucopyranosyl}-2-deoxy-2-[(R)-3-hexadecanoyloxy-tetredecanoylamino]-3-O—[(R)-3-hydroxy-dodecanoyl]-α-D-glucopyranose 1,4′-bisphosphate], the EC50 came out at 53 nM.

As to `CCCCCCCCCCCC(=O)OC(CCCCCCCCCCC)CC(=O)NC1C(OCC2OC(OP(=O)(O)O)C(NC(=O)CC(O)CCCCCCCCCCC)C(OC(=O)CC(O)CCCCCCCCC)C2O)OC(CO)C(OP(=O)(O)O)C1OC(=O)CC(CCCCCCCCC)OC(=O)CCCCCCCCCCC` [Lipid A 2, 6-O-{2-Deoxy-3-O—[(R)-3-dodecanoyloxy-dodecanoyl]-2-[(R)-3-dodecanoyloxy-tetradecanoylamino]-β-D-glucopyranosyl}-2-deoxy-3-O—[(R)-3-hydroxy-dodecanoyl]-2-[(R)-3-hydroxy-tetredecanoylamino]-α-D-glucopyranose 1,4′-bisphosphate], the EC50 was 14 nM.
